Assay results reported in patent US10167262B2, “Herbicidal substituted 3-arylpyrazoles” (FMC CORPORATION, priority 2014, dated 2019).
Like-named read-outs stand apart in the source and are kept apart here.

Legend:
Assay type in all cases: in vivo
[1] = test system: galium (catchweed bedstraw, Galium aparine); experiment: Test C pre-/postemergence greenhouse test, plant response rating 0-100; settings: Galium; for pest or weed control at 62 g/ha: 62 g ai/ha; for pest or weed control at 125 g/ha: 125 g ai/ha; for pest or weed control at 250 g/ha: 250 g ai/ha; for pest or weed control at 500 g/ha: 500 g ai/ha
Method in brief: (§1)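 Seeds were sown in a loam soil–sand blend and sprayed preemergence with test chemicals in a non-phytotoxic solvent mixture containing surfactant; postemergence plants in peat/vermiculite medium were treated at 2–18 cm (1- to 4-leaf stage). After 13 to 15 days in the greenhouse, injury was rated visually against untreated controls.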

[2] = test system: johnsongrass (Sorghum halepense); experiment: as above; settings: Sorghum halepense; for pest or weed control at 62 g/ha: 62 g ai/ha; for pest or weed control at 125 g/ha: 125 g ai/ha; for pest or weed control at 250 g/ha: 250 g ai/ha; for pest or weed control at 500 g/ha: 500 g ai/ha
Method in brief: as §1

[3] = test system: yellow nutsedge (Cyperus esculentus); experiment: as above; settings: Cyperus; for pest or weed control at 62 g/ha: 62 g ai/ha; for pest or weed control at 125 g/ha: 125 g ai/ha; for pest or weed control at 250 g/ha: 250 g ai/ha; for pest or weed control at 500 g/ha: 500 g ai/ha
Method in brief: as §1

[4] = test system: large (Lg) crabgrass (Digitaria sanguinalis); experiment: as above; settings: Digitaria sanguinalis; for pest or weed control at 62 g/ha: 62 g ai/ha; for pest or weed control at 125 g/ha: 125 g ai/ha; for pest or weed control at 250 g/ha: 250 g ai/ha; for pest or weed control at 500 g/ha: 500 g ai/ha
Method in brief: as §1

[5] = test system: morningglory (Ipomoea coccinea); experiment: as above; settings: Ipomoea; for pest or weed control at 62 g/ha: 62 g ai/ha; for pest or weed control at 125 g/ha: 125 g ai/ha; for pest or weed control at 250 g/ha: 250 g ai/ha; for pest or weed control at 500 g/ha: 500 g ai/ha
Method in brief: as §1

[6] = test system: soybean (Glycine max); experiment: as above; settings: Glycine max; for plant injury at 62 g/ha: 62 g ai/ha; for plant injury at 125 g/ha: 125 g ai/ha; for plant injury at 250 g/ha: 250 g ai/ha; for plant injury at 500 g/ha: 500 g ai/ha
Method in brief: as §1

[7] = test system: giant foxtail (Setaria faberii); experiment: as above; settings: Setaria faberi; for pest or weed control at 62 g/ha: 62 g ai/ha; for pest or weed control at 125 g/ha: 125 g ai/ha; for pest or weed control at 250 g/ha: 250 g ai/ha; for pest or weed control at 500 g/ha: 500 g ai/ha
Method in brief: as §1

[8] = test system: blackgrass (Alopecurus myosuroides); experiment: as above; settings: Alopecurus myosuroides; for pest or weed control at 62 g/ha: 62 g ai/ha; for pest or weed control at 125 g/ha: 125 g ai/ha; for pest or weed control at 250 g/ha: 250 g ai/ha; for pest or weed control at 500 g/ha: 500 g ai/ha
Method in brief: as §1

[9] = test system: winter wheat (Triticum aestivum); experiment: as above; settings: Triticum aestivum; for plant injury at 62 g/ha: 62 g ai/ha; for plant injury at 125 g/ha: 125 g ai/ha; for plant injury at 250 g/ha: 250 g ai/ha; for plant injury at 500 g/ha: 500 g ai/ha
Method in brief: as §1

[10] = test system: lambsquarters (Chenopodium album); experiment: as above; settings: Chenopodium album; for pest or weed control at 62 g/ha: 62 g ai/ha; for pest or weed control at 125 g/ha: 125 g ai/ha; for pest or weed control at 250 g/ha: 250 g ai/ha; for pest or weed control at 500 g/ha: 500 g ai/ha
Method in brief: as §1

[11] = test system: chickweed (common chickweed, Stellaria media); experiment: Test C postemergence greenhouse test, plant response rating 0-100; settings: Stellaria media, post-emergence
Method in brief: (§2)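 Scores run from 0, meaning no effect, to 100, meaning complete control, and come from visual comparison with untreated controls. Treatment was a postemergence application to plants 2–18 cm tall. Assessment followed 13 to 15 days of greenhouse growth.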

[12] = test system: wild oat (Avena fatua); experiment: as above; settings: Avena fatua, post-emergence
Method in brief: as §2

[13] = test system: kochia (Kochia scoparia); experiment: as above; settings: Bassia scoparia, post-emergence
Method in brief: as §2

[14] = post-emergence, Postemergence, read-out: Plant response rating (0 to 100), Galium
[15] = post-emergence, Postemergence, scale 0 to 100
[16] = pre-emergence, Preemergence, read-out: Plant response rating, Galium
[17] = post-emergence, Postemergence, read-out: Plant response rating (0 to 100), Johnsongrass
[18] = pre-emergence, Preemergence, read-out: Plant response rating, Johnsongrass
[19] = post-emergence, Postemergence, read-out: Plant response rating (0 to 100), Nutsedge, Yellow
[20] = pre-emergence, Preemergence, read-out: Plant response rating, Nutsedge, Yellow
[21] = post-emergence, Postemergence, read-out: Plant response rating (0 to 100), Crabgrass, Large
[22] = pre-emergence, Preemergence, read-out: Plant response rating, Crabgrass, Large
[23] = post-emergence, Postemergence, read-out: Plant response rating (0 to 100), Morningglory
[24] = pre-emergence, Preemergence, read-out: Plant response rating, Morningglory
[25] = post-emergence, Postemergence, read-out: Plant response rating (0 to 100), Soybean
[26] = pre-emergence, Preemergence, read-out: Plant response rating, Soybean
[27] = post-emergence, Postemergence, read-out: Plant response rating (0 to 100), Foxtail, Giant
[28] = pre-emergence, Preemergence, read-out: Plant response rating, Foxtail, Giant
[29] = pre-emergence, Preemergence, read-out: Plant response rating, Blackgrass
[30] = post-emergence, Postemergence, read-out: Plant response rating (0 to 100), Wheat
[31] = pre-emergence, Preemergence, read-out: Plant response rating, Wheat
[32] = post-emergence, Postemergence, read-out: Plant response rating (0 to 100), Lambsquarters
[33] = pre-emergence, Preemergence, read-out: Plant response rating, Lambsquarters

Compound: COC(OC)(c1ccccc1)c1c[nH]nc1-c1cc(Cl)cc(Cl)c1 [Compound 13, 3-(3,5-dichlorophenyl)-4-(dimethoxyphenylmethyl)-1H-pyrazole]
- pest or weed control at 62 g/ha [1, 14]: 0%
- pest or weed control at 125 g/ha [1, 14]: 0%
- pest or weed control at 250 g/ha [1, 15]: 40%
- pest or weed control at 500 g/ha [1, 15]: 10%
- pest or weed control at 62 g/ha [1, 16]: 60%
- pest or weed control at 125 g/ha [1, 16]: 0%
- pest or weed control at 250 g/ha ([1]; pre-emergence, Preemergence): 30%
- pest or weed control at 500 g/ha ([1]; pre-emergence, Preemergence): 0%
- pest or weed control at 62 g/ha [2, 17]: 0%
- pest or weed control at 125 g/ha [2, 17]: 0%
- pest or weed control at 250 g/ha [2, 15]: 0%
- pest or weed control at 500 g/ha [2, 15]: 0%
- pest or weed control at 62 g/ha [2, 18]: 0%
- pest or weed control at 125 g/ha [2, 18]: 0%
- pest or weed control at 250 g/ha ([2]; pre-emergence, Preemergence): 0%
- pest or weed control at 500 g/ha ([2]; pre-emergence, Preemergence): 0%
- pest or weed control at 62 g/ha [3, 19]: 0%
- pest or weed control at 125 g/ha [3, 19]: 0%
- pest or weed control at 250 g/ha [3, 15]: 0%
- pest or weed control at 500 g/ha [3, 15]: 0%
- pest or weed control at 62 g/ha [3, 20]: 0%
- pest or weed control at 125 g/ha [3, 20]: 0%
- pest or weed control at 250 g/ha ([3]; pre-emergence, Preemergence): 0%
- pest or weed control at 500 g/ha ([3]; pre-emergence, Preemergence): 0%
- pest or weed control at 62 g/ha [4, 21]: 0%
- pest or weed control at 125 g/ha [4, 21]: 10%
- pest or weed control at 250 g/ha [4, 15]: 10%
- pest or weed control at 500 g/ha [4, 15]: 0%
- pest or weed control at 62 g/ha [4, 22]: 0%
- pest or weed control at 125 g/ha [4, 22]: 0%
- pest or weed control at 250 g/ha ([4]; pre-emergence, Preemergence): 0%
- pest or weed control at 500 g/ha ([4]; pre-emergence, Preemergence): 0%
- pest or weed control at 62 g/ha [5, 23]: 0%
- pest or weed control at 125 g/ha [5, 23]: 0%
- pest or weed control at 250 g/ha [5, 15]: 10%
- pest or weed control at 500 g/ha [5, 15]: 10%
- pest or weed control at 62 g/ha [5, 24]: 0%
- pest or weed control at 125 g/ha [5, 24]: 0%
- pest or weed control at 250 g/ha ([5]; pre-emergence, Preemergence): 0%
- pest or weed control at 500 g/ha ([5]; pre-emergence, Preemergence): 0%
- plant injury at 62 g/ha [6, 25]: 0%
- plant injury at 125 g/ha [6, 25]: 0%
- plant injury at 250 g/ha [6, 15]: 0%
- plant injury at 500 g/ha [6, 15]: 10%
- plant injury at 62 g/ha [6, 26]: 0%
- plant injury at 125 g/ha [6, 26]: 0%
- plant injury at 250 g/ha ([6]; pre-emergence, Preemergence): 75%
- plant injury at 500 g/ha ([6]; pre-emergence, Preemergence): 60%
- pest or weed control at 62 g/ha [7, 27]: 0%
- pest or weed control at 125 g/ha [7, 27]: 0%
- pest or weed control at 250 g/ha [7, 15]: 0%
- pest or weed control at 500 g/ha [7, 15]: 0%
- pest or weed control at 62 g/ha [7, 28]: 0%
- pest or weed control at 125 g/ha [7, 28]: 0%
- pest or weed control at 250 g/ha ([7]; pre-emergence, Preemergence): 0%
- pest or weed control at 500 g/ha ([7]; pre-emergence, Preemergence): 0%
- pest or weed control at 62 g/ha ([8]; post-emergence, Postemergence, read-out: Plant response rating (0 to 100), Blackgrass): 5%
- pest or weed control at 125 g/ha ([8]; post-emergence, Postemergence, scale 0 to 100, read-out: Plant response rating, Blackgrass): 0%
- pest or weed control at 250 g/ha [8, 15]: 0%
- pest or weed control at 500 g/ha [8, 15]: 0%
- pest or weed control at 62 g/ha [8, 29]: 10%
- pest or weed control at 125 g/ha [8, 29]: 10%
- pest or weed control at 250 g/ha ([8]; pre-emergence, Preemergence): 50%
- pest or weed control at 500 g/ha ([8]; pre-emergence, Preemergence): 40%
- plant injury at 62 g/ha [9, 30]: 0%
- plant injury at 125 g/ha [9, 30]: 0%
- plant injury at 250 g/ha [9, 15]: 0%
- plant injury at 500 g/ha [9, 15]: 0%
- plant injury at 62 g/ha [9, 31]: 0%
- plant injury at 125 g/ha [9, 31]: 0%
- plant injury at 250 g/ha ([9]; pre-emergence, Preemergence): 0%
- plant injury at 500 g/ha ([9]; pre-emergence, Preemergence): 0%
- pest or weed control at 62 g/ha [10, 32]: 75%
- pest or weed control at 125 g/ha [10, 32]: 80%
- pest or weed control at 250 g/ha [10, 15]: 98%
- pest or weed control at 500 g/ha [10, 15]: 98%
- pest or weed control at 62 g/ha [10, 33]: 100%
- pest or weed control at 125 g/ha [10, 33]: 100%
- pest or weed control at 250 g/ha ([10]; pre-emergence, Preemergence): 100%
- pest or weed control at 500 g/ha ([10]; pre-emergence, Preemergence): 100%
- pest or weed control at 62 g/ha ([11]; 62 g ai/ha): 100%
- pest or weed control at 125 g/ha ([11]; 125 g ai/ha): 85%
- pest or weed control at 250 g/ha ([11]; 250 g ai/ha, scale 0 to 100): 100%
- pest or weed control at 500 g/ha ([11]; 500 g ai/ha, scale 0 to 100): 100%
- pest or weed control at 62 g/ha ([12]; 62 g ai/ha): 0%
- pest or weed control at 125 g/ha ([12]; 125 g ai/ha): 0%
- pest or weed control at 250 g/ha ([12]; 250 g ai/ha, scale 0 to 100): 0%
- pest or weed control at 500 g/ha ([12]; 500 g ai/ha, scale 0 to 100): 5%
- pest or weed control at 62 g/ha ([13]; 62 g ai/ha): 85%
- pest or weed control at 125 g/ha ([13]; 125 g ai/ha): 80%
- pest or weed control at 250 g/ha ([13]; 250 g ai/ha, scale 0 to 100): 85%
- pest or weed control at 500 g/ha ([13]; 500 g ai/ha, scale 0 to 100): 90%
